Results on 30 compounds are retold here after patent US9150534B2, “Prodrugs of fluorinated mevalonates to inhibit the mevalonate pathway of Streptococcus pneumoniae” (Northwestern University, priority 2012, dated 2015).

Like-named read-outs stand apart in the source and are kept apart here.

Data set [1] can be described thus: Evaluation of stability in PBS buffer (pH=7.4), HPLC. It counts as physicochemical. Particulars: for half-life at 1 mM: PBS buffer pH=7.4, 37° C., read-out: half-life time (T1/2) in PBS buffer (converted). The protocol: The stabilities of several cyclic carbonate analogues in PBS buffer (pH=7.4) were tested first to determine the standard level of the drug decomposition by media (Table 1). PBS (phosphate buffered saline) buffer is a standard solution used in plasma stability tests. […] After the compounds were incubated in PBS buffer at 37° C., the degradation of the compounds with incubation time was monitored. As the number of fluorines at the C6 position was increased, the half-life time (T1/2) of the molecule was decreased dramatically (4 vs 25 vs 35). T1/2 of the C6-methyl analogue (4) was more than 48 hours and T1/2 of C6-monofluoromethyl analogues (25, 29, and 30) were about 25 hours while T1/2 of C6-trifluoromethyl analogues (35, 39, and 40) were about 5 hours. If the substitution of C-6 position (CH3, CH2F, or CF3) was same, T1/2 of diverse benzyl esters (benzyl, 4-fluorobenzyl, or 2,4-difluorobenzyl) were not dramatically changed. […] These half-lives of benzyl esters and cyclic carbonates in PBS buffer were sufficient to use these promoieties for the penetration of the cell membrane.
The stock solution of the test compound (10 mM in acetonitrile, 50 μL) was added to PBS buffer (pH=7.4, 450 μL), and the mixture was incubated at 37° C. Aliquots of the samples were analyzed directly by HPLC (See below). These tests were conducted two times in each compound.
(§1) Analysis was performed on a Phenomenex® Luna C18 column (250×4.6 mm) eluted with a gradient conditions of acetonitrile and H2O. Detection was by UV absorbance at 257 nm or total count of single ion in Agilent 6210 LC-TOF mass spectra.

A short description of data set [2]: Evaluation of stability in human plasma, HPLC or LC-TOF. In kind it is in vitro ADME. The procedure:
The stabilities of diverse cyclic carbonate prodrugs (4, 9, 10, 11, 17, 18, 19, 25, 29, 30, 39, 40, and 41), which have a chromosphere for UV detection, in human plasma were tested using HPLC. After the mixture of test compounds and human plasma were incubated at 37° C., the degradation of the compounds was monitored by HPLC (Table 2). […] The peaks of the corresponding diols (3, 24, or 34), which were the compounds that result when only the carbonate moiety of the analogues was hydrolyzed, were not observed. The half-lives of the benzyl or phenyl ester moieties may be shorter than carbonate, under tested conditions for such compounds to be used effectively as prodrugs.
Human plasma (100%, 480 μL) was incubated at 37° C. for 5 min. The stock solution of the test compound (100 mM in acetonitrile, 20 μL) was added to the human plasma, and the mixture was incubated at 37° C. Aliquots (80 μL) of the plasma samples were removed and mixed with an equal volume of acetonitrile. The mixture was stirred vigorously and centrifuged (5500 rpm, 5 min). The supernatant was filtered and the filtrate was analyzed by HPLC or LC-TOF (See below). These tests were conducted two times in each compound.
as §1

Setting [3] is: human, human plasma (100%), 37° C., read-out: half-life (T1/2) in human plasma.
The mark [4] stands for this setting: human, human plasma (100%), 37° C., read-out: T1/2 (half-lives of diverse carbonate in human plasma).
Setting [5] is: human, human plasma (100%), 37° C., read-out: T1/2 (stabilities of the benzyl amide analogues with acetal, ketal, t-butyl carbonate promoieties in human plasma).
Where [6] appears, read: read-out: half-life of the ester moieties on the carboxylic acids.

`COC(=O)CC1(CF)CCOC(=O)O1` (stereo not drawn) showed a melting point of 42 to 42.5 °C. For `CC1(CC(=O)OCc2ccccc2)CCOC(=O)O1` (stereo not drawn) [compound 4], in data set [1], the half-life at 1 mM is above 48 h. The half-life at 4 mM in data set [2] (setting [3]) is 4 min. The compound `CC1(CC(=O)Oc2ccccc2)CCOC(=O)O1` (stereo not drawn) [compound 9] registered a melting point of 62 to 62.5 °C. Moreover, the half-life at 4 mM in data set [2] (setting [3]) was below 3 min. For `CC1(CC(=O)Oc2ccc(F)cc2)CCOC(=O)O1` (stereo not drawn) [compound 10], in that order: 68 to 69 °C and below 3 min. `CC1(CC(=O)Oc2ccc3c(c2)CCC3)CCOC(=O)O1` (stereo not drawn) [compound 11] yielded a melting point of 88 to 89 °C. Also, in data set [2] (setting [4]), the half-life at 4 mM was below 3 min. In data set [2] (setting [3]), the half-life at 4 mM is below 3 min.

Consider `CC1(CC(=O)Nc2ccccc2)CCOC(=O)O1` (stereo not drawn) [compound 17], for which the half-life at 4 mM in data set [2] (setting [3]) was below 3 min.

For the compound `CC1(CC(=O)NCc2ccccc2)CCOC(=O)O1` (stereo not drawn) [compound 18], the half-life at 4 mM in data set [2] (setting [3]) was 8 min.

Take `CC1(CC(=O)NCc2ccc(F)cc2)CCOC(=O)O1` (stereo not drawn) [compound 19]: the half-life at 4 mM in data set [2] (setting [3]) was determined as 8 min. As to `O=C(CC1(CF)CCOC(=O)O1)OCc1ccccc1` (stereo not drawn) [compound 25], in data set [1], the half-life at 1 mM is around 25 h. The “T1/2 (half-lives of diverse carbonate in human plasma)” value in data set [2] (37° C.) turned out to be 2 min. Moreover, the half-life at 4 mM in data set [2] (setting [3]) is below 3 min. With `O=C(CC1(CF)CCOC(=O)O1)OCc1ccc(F)cc1` (stereo not drawn) [compound 29], the half-life at 1 mM in data set [1] is around 25 h. Further, the “T1/2 (half-lives of diverse carbonate in human plasma)” value in data set [2] (37° C.) was found to be 2 min. Moreover, in data set [2] (setting [3]), the half-life at 4 mM was below 3 min. The corresponding values for `O=C(CC1(CF)CCOC(=O)O1)OCc1ccc(F)cc1F` (stereo not drawn) [compound 30] are around 25 h, 1 min and below 3 min. `O=C(CC1(C(F)(F)F)CCOC(=O)O1)OCc1ccccc1` (stereo not drawn) [compound 35] had a melting point of 87.5 to 88 °C. In addition, the half-life at 1 mM in data set [1] is around 5 h. Also, in data set [1] (degradation of 35 in PBS buffer), the “peak of 34 (carbonate moiety decomposition product) in HPLC” value is reported as “not observed”. The “T1/2 (half-lives of diverse carbonate in human plasma)” value in data set [2] (37° C.) was below 1 min. In addition, the half-life at 4 mM in data set [2] (setting [3]) is below 3 min. Regarding `O=C(CC1(C(F)(F)F)CCOC(=O)O1)OCc1ccc(F)cc1` (stereo not drawn) [compound 39], the melting point is 84 to 85 °C. Further, in data set [1], the half-life at 1 mM was around 5 h. Moreover, the “T1/2 (half-lives of diverse carbonate in human plasma)” value in data set [2] (37° C.) is listed as below 1 min. Further, the half-life at 4 mM in data set [2] (setting [3]) is below 3 min. Turning to `O=C(CC1(C(F)(F)F)CCOC(=O)O1)OCc1ccc(F)cc1F` (stereo not drawn) [compound 40], the half-life at 1 mM in data set [1] is around 5 h. Also, the “T1/2 (half-lives of diverse carbonate in human plasma)” value in data set [2] (37° C.) is below 1 min. Besides, in data set [2] (setting [3]), the half-life at 4 mM was below 3 min. Turning to `O=C(CC1(C(F)(F)F)CCOC(=O)O1)OCCc1ccccc1` (stereo not drawn) [compound 41], the values for the half-life at 4 mM in data set [2] (setting [4]) and in data set [2] (setting [3]) were 4 min and below 3 min, respectively. Take `CC1(CC(=O)NCc2ccccc2)CCOCO1` (stereo not drawn) [compound 45]: the “T1/2 (stabilities of the benzyl amide analogues with acetal, ketal, t-butyl carbonate promoieties in human plasma)” value in data set [2] (37° C.) is recorded as above 48 h.

Consider `O=C(CC1(C(F)(F)F)CCOCO1)NCc1ccccc1` (stereo not drawn) [compound 46], for which the “T1/2 (stabilities of the benzyl amide analogues with acetal, ketal, t-butyl carbonate promoieties in human plasma)” value in data set [2] (37° C.) is above 48 h. As for `CC1(CC(=O)NCc2ccccc2)CCOC(C)(C)O1` (stereo not drawn) [compound 47], the “T1/2 (stabilities of the benzyl amide analogues with acetal, ketal, t-butyl carbonate promoieties in human plasma)” value in data set [2] (37° C.) was above 48 h. Take `CC1(C)OCCC(CC(=O)NCc2ccccc2)(C(F)(F)F)O1` (stereo not drawn) [compound 48]: the half-life at 4 mM in data set [2] (setting [5]) was above 2880 min.

Consider `CC1(CC(=O)NCc2ccccc2)CCOC(c2ccccc2)O1` (stereo not drawn) [compound 49], for which the “T1/2 (stabilities of the benzyl amide analogues with acetal, ketal, t-butyl carbonate promoieties in human plasma)” value in data set [2] (37° C.) was above 48 h. The same measure, in the same setting: the value for `O=C(CC1(C(F)(F)F)CCOC(c2ccccc2)O1)NCc1ccccc1` (stereo not drawn) [compound 50] was above 48 h; that for `COc1ccc(C2OCCC(CC(=O)NCc3ccccc3)(C(F)(F)F)O2)cc1` (stereo not drawn) [compound 51] was above 48 h. `COc1ccc(C2OCCC(CC(=O)NCc3ccccc3)(C(F)(F)F)O2)cc1` (stereo not drawn) [compound 52]: in data set [2] (setting [5]), the half-life at 4 mM was above 2880 min. On to `COc1ccc(C2OCCC(CC(=O)NCc3ccccc3)(C(F)(F)F)O2)c(OC)c1` (stereo not drawn) [compound 53], for which the “T1/2 (stabilities of the benzyl amide analogues with acetal, ketal, t-butyl carbonate promoieties in human plasma)” value in data set [2] (37° C.) is above 48 h. On to `CC(O)(CCOC(=O)OC(C)(C)C)CC(=O)NCc1ccccc1` (stereo not drawn) [compound 54], for which, in data set [2] (37° C.), the “T1/2 (stabilities of the benzyl amide analogues with acetal, ketal, t-butyl carbonate promoieties in human plasma)” value was above 48 h. On to `CC(C)(C)OC(=O)OCCC(O)(CC(=O)NCc1ccccc1)C(F)(F)F` (stereo not drawn) [compound 55], for which, in data set [2] (37° C.), the “T1/2 (stabilities of the benzyl amide analogues with acetal, ketal, t-butyl carbonate promoieties in human plasma)” value is recorded as above 48 h. Turning to `CC(O)(CCO)CC(=O)NCc1c(F)c(F)c(F)c(F)c1F` (stereo not drawn) [compound 56], the “T1/2 (stabilities of amide and ester analogues in human plasma)” value in data set [2] (37° C.) is reported as above 120 min.

Regarding `COC(=O)CC(O)(CF)CCOC(C)=O` (stereo not drawn) [compound 63], the “T1/2 (stabilities of amide and ester analogues in human plasma)” value in data set [2] (37° C.) is 10 min. Further, the half-life at 4 mM in data set [2] (setting [6]) was in the range of 10 to 22 min. The corresponding values for `CCOC(=O)CC(O)(CF)CCOC(C)=O` (stereo not drawn) [compound 64] are 11 min and 10 to 22 min.

In the case of `CC(=O)OCCC(O)(CF)CC(=O)NCc1ccccc1` (stereo not drawn) [compound 65], the half-life at 4 mM in data set [2] (human, human plasma (100%), 37° C., read-out: T1/2 (stabilities of amide and ester analogues in human plasma)) is 20 min; in data set [2] (human, human plasma (100%), read-out: half-life of the acetyl groups on the alcohol) it was around 20 min.

By melting point is commonly meant the temperature of the solid-liquid transition.
